Results as given in ChEMBL document CHEMBL4304765 (ACS Med Chem Lett, 2019).
Calls of active or inactive are those of the source.

What was measured:
[1] = Metabolic stability in Sprague-Dawley rat liver microsomes at 10 uM preincubated for 5 mins followed by NADPH addition and measured for 60 mins by HPLC analysis; format: ADME, Microsome; conditions: read-out: Stability
[2] = target: Beta-1 adrenergic receptor (Homo sapiens, UniProt P08588); assay: Binding affinity to beta1 adrenergic receptor (unknown origin) by radioligand binding assay
[3] = target: Beta-2 adrenergic receptor (Homo sapiens, UniProt P07550); assay: Binding affinity to beta2 adrenergic receptor (unknown origin) by radioligand binding assay
[4] = target: T1, Bifunctional epoxide hydrolase 2 (Homo sapiens, UniProt P34913); assay: Inhibition of recombinant human full length soluble epoxide hydrolase (1 to 555 residues) expressed in Escherichia coli BL21(DE3) using non-fluorescent PHOME as substrate preincubated for 30 mins followed by substrate addition and measured after 30 mins by fluorescence based assay
T1 sequence (P34913 whole entry): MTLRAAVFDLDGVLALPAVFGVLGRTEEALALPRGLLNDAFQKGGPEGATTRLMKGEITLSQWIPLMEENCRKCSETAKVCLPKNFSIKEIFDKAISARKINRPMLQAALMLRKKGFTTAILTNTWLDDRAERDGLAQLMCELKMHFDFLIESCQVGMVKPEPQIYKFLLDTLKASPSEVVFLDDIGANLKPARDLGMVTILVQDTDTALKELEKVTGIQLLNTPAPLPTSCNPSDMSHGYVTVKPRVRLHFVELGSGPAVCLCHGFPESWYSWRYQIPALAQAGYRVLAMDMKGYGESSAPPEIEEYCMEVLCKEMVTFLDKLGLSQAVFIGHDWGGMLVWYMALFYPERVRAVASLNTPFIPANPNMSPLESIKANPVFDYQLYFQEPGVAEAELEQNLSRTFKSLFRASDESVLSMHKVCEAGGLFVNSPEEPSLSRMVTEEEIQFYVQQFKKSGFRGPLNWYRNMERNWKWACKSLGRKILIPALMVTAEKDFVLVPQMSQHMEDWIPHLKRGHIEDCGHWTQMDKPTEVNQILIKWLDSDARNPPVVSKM

Rattus norvegicus = assay: Antiallodynic activity in streptozocin-induced Sprague-Dawley rat of diabetic neuropathy model assessed as increase in mechanical withdrawal threshold at 10 mg/kg administered via oral gavage and measured for 3 to 4 times at 1 min interval by von Frey assay; format: functional, organism-based
[5] = target: T2, Bifunctional epoxide hydrolase 2 (Homo sapiens) (UniProt P34913)
T2 sequence (whole entry): T1 sequence (P34913 whole entry)
Description: Binding affinity to recombinant human C-terminal soluble epoxide hydrolase-hydrolase domain (222 to 555 residues) expressed in Escherichia coli BL21(DE3) assessed as change in melting temperature at 200 uM by SYPRO orange dye-based differential scanning fluorimetric analysis (Rvb = 57.0 +/- 0.0 degreeC)

IC50 [4]	Compound	remaining at 1 h, 10 µM [1]	Ki [2]	Ki [3]	IC50 ([4]; read-out: IC50)	Activity [2]	Activity [3]	Activity (Rattus norvegicus)	Tm [5]
	CC(C)(C)NCC(O)COc1ccc(NC(=O)NC2CCCCC2)cc1 (configuration not stated) [TALINOLOL]	86%	240 nM	900 nM					
	CC(C)(C)N1CCOC(COc2ccc(NC(=O)NC3CCCCC3)cc2)C1 (configuration not stated)	71%			77 nM	inactive	inactive	Active	65.1 °C
Not Active	CC(C)NCC(O)COc1cccc2ccccc12 (configuration not stated) [PROPRANOLOL]	37%							56.3 °C
